{"source": "paper PMC6934184", "about": "“Selective DNA-PKcs inhibition extends the therapeutic index of localized radiotherapy and chemotherapy” (The Journal of Clinical Investigation, 2019)", "biological_target": "T1, MST1R (RON) (Homo sapiens, UniProt Q04912)", "T1 construct": "purchased Thermo Fisher Scientific (Life Technologies) SelectScreen", "T1 sequence (Q04912 25-1400)": "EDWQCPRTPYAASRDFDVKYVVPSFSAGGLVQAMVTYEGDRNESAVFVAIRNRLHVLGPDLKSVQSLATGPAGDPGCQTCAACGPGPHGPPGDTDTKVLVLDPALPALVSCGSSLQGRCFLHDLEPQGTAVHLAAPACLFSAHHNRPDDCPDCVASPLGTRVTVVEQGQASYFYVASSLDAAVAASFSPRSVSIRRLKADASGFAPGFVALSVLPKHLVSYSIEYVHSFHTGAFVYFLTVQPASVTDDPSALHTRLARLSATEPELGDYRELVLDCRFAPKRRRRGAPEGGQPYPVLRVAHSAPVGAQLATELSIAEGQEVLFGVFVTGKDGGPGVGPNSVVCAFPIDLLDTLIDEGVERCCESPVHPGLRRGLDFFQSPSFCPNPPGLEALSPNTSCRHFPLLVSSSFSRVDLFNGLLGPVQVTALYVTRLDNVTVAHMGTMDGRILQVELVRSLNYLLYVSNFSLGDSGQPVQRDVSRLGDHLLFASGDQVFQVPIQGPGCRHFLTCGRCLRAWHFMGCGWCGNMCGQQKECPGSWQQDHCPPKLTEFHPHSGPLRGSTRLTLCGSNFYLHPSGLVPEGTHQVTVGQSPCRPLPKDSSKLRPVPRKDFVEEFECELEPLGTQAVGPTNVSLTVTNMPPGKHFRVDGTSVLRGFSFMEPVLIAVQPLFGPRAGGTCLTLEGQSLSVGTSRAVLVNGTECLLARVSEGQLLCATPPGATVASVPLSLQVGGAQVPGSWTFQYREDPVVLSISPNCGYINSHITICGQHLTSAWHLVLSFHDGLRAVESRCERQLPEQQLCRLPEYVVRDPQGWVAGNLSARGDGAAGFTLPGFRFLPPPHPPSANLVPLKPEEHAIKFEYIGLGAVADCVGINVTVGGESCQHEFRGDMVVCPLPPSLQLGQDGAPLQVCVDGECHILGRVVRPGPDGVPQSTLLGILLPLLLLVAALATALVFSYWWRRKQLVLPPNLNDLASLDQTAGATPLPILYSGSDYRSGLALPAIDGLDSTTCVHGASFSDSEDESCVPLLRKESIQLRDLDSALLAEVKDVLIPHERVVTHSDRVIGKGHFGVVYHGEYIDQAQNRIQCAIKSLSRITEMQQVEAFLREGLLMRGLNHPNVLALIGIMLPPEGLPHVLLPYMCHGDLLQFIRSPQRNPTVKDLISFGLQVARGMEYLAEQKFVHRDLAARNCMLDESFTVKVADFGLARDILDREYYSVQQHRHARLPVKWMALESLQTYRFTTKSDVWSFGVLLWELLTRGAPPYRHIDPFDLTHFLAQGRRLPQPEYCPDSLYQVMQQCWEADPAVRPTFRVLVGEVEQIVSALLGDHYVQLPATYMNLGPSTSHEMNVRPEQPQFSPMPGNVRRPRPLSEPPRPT", "experiment": "SelectScreen Z'LYTE", "assay_type": "biochemical", "how_it_was_run": "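Percent values come from Thermo SelectScreen profiling of NU5455, combining activity and binding assays. CSF1R was run in Z'LYTE format at Km app ATP, and CAMK1 in Adapta format with ATP listed at 10.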"}
{"smiles": "CN(C(=O)CN1CCOCC1)c1ccc2sc3c(-c4cccc5c(=O)cc(N6CC7CCC(C6)O7)oc45)cccc3c2c1", "note": "[NU5455]", "values": [{"measurement": "inhibition at 1 µM", "result": -13.4, "unit": "%"}]}
